Laboratory results published in patent US12209079B2 (GENERAL INCORPORATED ASSOCIATION PHARMA VALLEY PROJECT …, priority 2017, dated 2025).
Where a name gives a salt, the structure may show the parent alone.

What was measured:
[1] = biological target: rhIDO (recombinant human IDO) (Homo sapiens, UniProt P14902); assay: Enzyme assay using rhIDO (rate of kynurenine production); assay type: biochemical; details: 2 h, read-out: rhIDO-mediated kynurenine production; for remaining activity at 10 µM: final concentration of the compound 10 μM, rate relative to reaction without compound
rhIDO (recombinant human IDO), sequence (P14902 whole entry): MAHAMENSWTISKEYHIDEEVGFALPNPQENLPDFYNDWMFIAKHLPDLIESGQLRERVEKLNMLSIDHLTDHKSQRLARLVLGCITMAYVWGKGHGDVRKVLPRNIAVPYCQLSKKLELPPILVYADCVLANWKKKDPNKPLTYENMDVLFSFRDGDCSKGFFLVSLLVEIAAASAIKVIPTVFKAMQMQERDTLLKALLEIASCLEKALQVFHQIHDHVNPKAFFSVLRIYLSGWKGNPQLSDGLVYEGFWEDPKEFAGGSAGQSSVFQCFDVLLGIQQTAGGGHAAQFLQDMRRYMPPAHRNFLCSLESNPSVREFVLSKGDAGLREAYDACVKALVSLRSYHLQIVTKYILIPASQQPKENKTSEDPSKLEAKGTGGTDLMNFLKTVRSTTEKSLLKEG
Procedure, shortened: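 Kynurenine formation, expressed as % of uncompounded reaction after background subtraction, was read by absorbance at 490 nm following TCA stop, 50 °C hydrolysis and Ehrlich-type p-dimethylbenzaldehyde staining. Recombinant human IDO with ascorbate/methylene blue/catalase was pre-exposed to compound 10 min, then reacted 120 min at 37 °C after adding 2 mM tryptophan stock.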

TDO in A172 cells = biological target: T1, TDO in A172 cells (Homo sapiens, UniProt P48775); assay: TDO cell-based assay, kynurenine production in A172 cells; details: A 172; final concentration of the compound 10 μM; rate relative to culture without compound
T1 construct: endogenous in cells; host or cells: A172 cells
T1 sequence (P48775 whole entry): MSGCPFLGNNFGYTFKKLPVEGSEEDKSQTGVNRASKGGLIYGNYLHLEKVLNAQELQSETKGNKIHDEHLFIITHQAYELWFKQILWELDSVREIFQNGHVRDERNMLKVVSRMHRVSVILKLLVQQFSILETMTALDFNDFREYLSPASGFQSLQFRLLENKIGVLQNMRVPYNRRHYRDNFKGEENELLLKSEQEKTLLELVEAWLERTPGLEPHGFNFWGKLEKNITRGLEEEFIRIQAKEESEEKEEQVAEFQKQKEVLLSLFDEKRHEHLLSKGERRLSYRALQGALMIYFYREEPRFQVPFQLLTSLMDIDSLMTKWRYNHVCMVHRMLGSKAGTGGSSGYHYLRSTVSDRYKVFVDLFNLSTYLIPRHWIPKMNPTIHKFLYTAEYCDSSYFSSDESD
Procedure, shortened: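 A172 cells were preincubated with compound for 1 h, then given L-tryptophan (final 524 μM) for 24 h at 37 °C. Kynurenine was read at 460 nm after p-dimethylbenzaldehyde/TCA reagent, background-subtracted, and expressed as % of no-compound production.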

IDO in A431 cells = biological target: T2, IDO in A431 cells (Homo sapiens, UniProt P14902); assay: IDO cell-based assay, kynurenine production in IFN-γ stimulated A431 cells; details: A-431, 24 h; final concentration of the compound 10 μM; rate relative to culture without compound
T2 construct: endogenous in cells; host or cells: A431 cells, IFN-γ stimulated
T2 sequence (P14902 whole entry): as the sequence (P14902 whole entry) above
Procedure, shortened: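 Kynurenine output was read by absorbance at 460 nm after p-dimethylbenzaldehyde/trichloroacetic acid reagent, background-corrected, and given as % of untreated wells. Before the read, cells in 178 μM L-tryptophan medium had 1 h compound preincubation, then 24 h IFN-γ stimulation (added as 100 ng/mL dilution).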

[2] = biological target: rhTDO (recombinant human TDO) (Homo sapiens, UniProt P48775); assay: Enzyme assay using rhTDO (rate of kynurenine production); assay type: biochemical; details: 2 h; final concentration of the compound 10 μM; rate relative to reaction without compound; read-out: rhTDO-mediated kynurenine production
rhTDO (recombinant human TDO), sequence (P48775 whole entry): as the sequence (P48775 whole entry) above
Procedure, shortened: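 Kynurenine output, as percent of untreated control after background subtraction, read at 490 nm with p-dimethylbenzaldehyde following TCA quench and 15 min heating at 50 °C. Reaction: rhTDO with compound, 10 min preincubation then 120 min at 37 °C, started by 20 mM tryptophan stock, in phosphate/ascorbate/methylene blue/catalase.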

Row | SMILES | remaining activity at 10 µM (TDO in A172 cells) | remaining activity at 10 µM (IDO in A431 cells) | remaining activity at 10 µM [2] | remaining activity at 3 µM ([1]; final concentration of the compound 3 μM (data with *)) | remaining activity at 10 µM [1]
1 | Clc1ccccc1CCN1CN=C(SCc2ccc(Br)cc2CSC2=NCN(CCc3ccccc3Cl)CN2)NC1 [Compound 53, 6,6′-(((4-Bromo-1,2-phenylene)bis(methylene))bis(sulfanediyl))bis(3-(2-chlorophenethyl)-1,2,3,4-tetrahydro-1,3,5-triazine)] | 17% | 5% | 19% |  | 16%
2 | N=C(N)SCc1ccc(Br)cc1C(=O)NCc1ccc(Br)cc1 [Compound 117, 4-Bromo-2-((4-bromobenzyl)carbamoyl)benzyl carbamimidothioate hydrobromide] | 31% | 7% | 9% |  | 2%
3 | N=C(N)SCc1ccccc1CC(=O)NCC1CC1 [Compound 71, 2-(2-((Cyclopropylmethyl)amino)-2-oxoethyl)benzyl carbamimidothioate hydrobromide] | 77% | 96% | 67% |  | 87%
4 | N=C(N)SCc1cc(Br)ccc1C(=O)NCc1ccc(F)c(Cl)c1 [Compound 116, 5-Bromo-2-((3-chloro-4-fluorobenzyl)carbamoyl)benzyl carbamimidothioate hydrobromide] | 55% | 92% | 21% |  | 85%
5 | N#Cc1ccc(CNC(=O)Cc2ccccc2CSC(=N)N)cc1 [Compound 67, 2-(2-((4-Cyanobenzyl)amino)-2-oxoethyl)benzyl carbamimidothioate hydrobromide] | 64% | 36% | 46% |  | 39%
6 | N/C(=N\c1ccc(F)cc1)SCc1ccc(F)cc1CS/C(N)=N/c1ccc(F)cc1 [Compound 127, (4-Fluoro-1,2-phenylene)bis(methylene) (E,E)-bis(N′-(4-fluorophenyl)carbamimidothioate) dihydrobromide] | 10% | 8% | 12% |  | 0%
7 | COc1cccc(CNC(=O)c2ccc(Br)cc2C[Se]C(=N)N)c1 [Compound 106, 5-Bromo-2-((3-methoxybenzyl)carbamoyl)benzyl carbamimidoselenoate hydrobromide] | 48% | 64% | 98% |  | 90%
8 | COc1cccc(CCN2CN=C(SCc3cc(Cl)c(Cl)cc3CSC3=NCN(CCc4cccc(OC)c4)CN3)NC2)c1 [Compound 153, 6,6′-(((4,5-Dichloro-1,2-phenylene)bis(methylene))bis(sulfanediyl))bis(3-(3-methoxyphenethyl)-1,2,3,4-tetrahydro-1,3,5-triazine)] | 9% | 12% | 6% |  | 8%
9 | FC(F)(F)c1ccc(CCN2CN=C(SCc3ccc(Br)cc3CSC3=NCN(CCc4ccc(C(F)(F)F)cc4)CN3)NC2)cc1 [Compound 141, 6,6′-(((4-Bromo-1,2-phenylene)bis(methylene))bis(sulfanediyl))bis(3-(4-(trifluoromethyl)phenethyl)-1,2,3,4-tetrahydro-1,3,5-triazine)] | 11% | 5% | 14% |  | 21%
10 | FC(F)(F)c1ccc(CSC2=NCN(CCc3ccc(Cl)c(Cl)c3)CN2)c(CSC2=NCN(CCc3ccc(Cl)c(Cl)c3)CN2)c1 [Compound 47, 6,6′-(((4-(Trifluoromethyl)-1,2-phenylene)bis(methylene))bis(sulfanediyl))bis(3-(3,4-dichlorophenethyl)-1,2,3,4-tetrahydro-1,3,5-triazine)] | 45% | 15% | 53% |  | 16%

Continued, in another order:

Row | remaining activity at 10 µM (TDO in A172 cells) | remaining activity at 10 µM (IDO in A431 cells) | remaining activity at 10 µM [2] | remaining activity at 3 µM ([1]; final concentration of the compound 3 μM (data with *)) | SMILES | remaining activity at 10 µM [1]
11 | 45% | 66% | 38% |  | CNC(=O)Cc1ccccc1CS/C(N)=N/c1ccc(F)c(Cl)c1 [Compound 80, 2-(2-(Methylamino)-2-oxoethyl)benzyl (E)-N′-(3-chloro-4-fluorophenyl)carbamimidothioate hydrobromide] | 97%
12 | 3% | 13% | 10% |  | N/C(=N\c1cccc(Br)c1)SCc1cc(Cl)c(Cl)cc1CS/C(N)=N/c1cccc(Br)c1 [Compound 136, (4,5-Dichloro-1,2-phenylene)bis(methylene) (E,E)-bis(N′-(3-bromophenyl)carbamimidothioate) dihydrobromide] | -2%
13 | 6% | 4% | 14% |  | Clc1ccc(CN2CN=C(SCc3ccc(Br)cc3CSC3=NCN(Cc4ccc(Cl)c(Cl)c4)CN3)NC2)cc1Cl [Compound 54, 6,6′-(((4-Bromo-1,2-phenylene)bis(methylene))bis(sulfanediyl))bis(3-(3,4-dichlorobenzyl)-1,2,3,4-tetrahydro-1,3,5-triazine)] | 13%
14 | 0% | 10% | 36% |  | c1ccc(CCN2CN=C(SCc3ccccc3CSC3=NCN(CCc4ccccc4)CN3)NC2)cc1 [Compound 9, 1,2-bis(((5-phenethyl-1,4,5,6-tetrahydro-1,3,5-triazin-2-yl)thio)methyl)benzene] | 30%
15 | -3% | 4% | 4% | 29% | Clc1cc(CSC2=NCN(CC3CC3)CN2)c(CSC2=NCN(CC3CC3)CN2)cc1Cl [Compound 73, 6,6′-(((4,5-Dichloro-1,2-phenylene)bis(methylene))bis(sulfanediyl))bis(3-(cyclopropylmethyl)-1,2,3,4-tetrahydro-1,3,5-triazine)] | 
16 | -1% | 6% | 54% |  | Clc1ccc(CCN2CN=C(SCc3ccccc3CSC3=NCN(CCc4ccc(Cl)cc4Cl)CN3)NC2)c(Cl)c1 [Compound 21, 1,2-bis(((5-(2,4-dichlorophenethyl)-1,4,5,6-tetrahydro-1,3,5-triazin-2-yl)thio)methyl)benzene] | 30%
17 | 0% | 8% | 25% |  | Clc1ccc(CCN2CN=C(SCc3ccccc3CSC3=NCN(CCc4ccc(Cl)cc4)CN3)NC2)cc1 [Compound 17, 1,2-bis(((5-(4-chlorophenethyl)-1,4,5,6-tetrahydro-1,3,5-triazin-2-yl)thio)methyl)benzene] | 30%
18 | 18% | 6% | 19% |  | Fc1ccc(CN2CN=C(SCc3ccc(Br)cc3CSC3=NCN(Cc4ccc(F)c(Cl)c4)CN3)NC2)cc1Cl [Compound 144, 6,6′-(((4-Bromo-1,2-phenylene)bis(methylene))bis(sulfanediyl))bis(3-(3-chloro-4-fluorobenzyl)-1,2,3,4-tetrahydro-1,3,5-triazine)] | 15%
19 | 20% | 3% | 35% |  | N#Cc1ccc(CNC(=O)c2cc(Br)ccc2CS/C(N)=N/c2ccc(F)c(Cl)c2)cc1 [Compound 118, 4-Bromo-2-((4-cyanobenzyl)carbamoyl)benzyl (E)-N′-(3-chloro-4-fluorophenyl)carbamimidothioate hydrobromide] | 15%
20 | 70% | 61% | 84% |  | N#Cc1ccc(CNC(=O)c2ncccc2CS/C(N)=N/c2ccc(F)c(Cl)c2)cc1 [Compound 101, (2-((4-Cyanobenzyl)carbamoyl)pyridin-3-yl)methyl (E)-N′-(3-chloro-4-fluorophenyl)carbamimidothioate hydrobromide] | 78%
21 | -4% | 6% | 24% |  | Cc1ccc(CCN2CN=C(SCc3ccccc3CSC3=NCN(CCc4ccc(C)c(C)c4)CN3)NC2)cc1C [Compound 23, 1,2-bis(((5-(3,4-dimethylphenethyl)-1,4,5,6-tetrahydro-1,3,5-triazin-2-yl)thio)methyl)benzene] | 18%
